Experimental data as given in US20130202698A1 (NANJING SANHOME PHARMACEUTICAL CO., LTD., priority 2005, published 2013).
Marks after values point to notes of the source that are not given here.

Key:
[1] = Acute toxicity in mice (LD50); settings: mouse, in vivo
[2] = Phase II clinical trial, oral tablets, departments of obstetrics/gynecology, adverse events; type: in vivo, human; settings: human phase II, oral, obstetrics/gynecology
Procedure: Double-blinded randomized controlled trials were carried out to compare the adverse events of oral levo-ornidazole with racemate treatment groups. Two separate studies were conducted for patients with infections from either department of stomatology or obstetrics/gynecology.

[3] = system: spontaneous activities of mice; test: Effects on spontaneous activities of mice; settings: Mean ± SD, n=10
[4] = system: motor balance and coordination; test: Motor balance and coordination, modified beam walking method; settings: mice, n=10
[5] = system: Remefline-induced convulsion; test: Anticonvulsant effects on Remefline-induced convulsion in mice; type: in vivo
Procedure: In one experiment, the anticonvulsant effects of levo- and dextro-ornidazole against drug-induced convulsions in mice were compared. In four different animal convulsion models, mice were treated by four different seizure-inducing agents, including Remefline, Strychnine, isoniazid, thiosemicarbazide. Levo- or dextro-ornidazole was administered along with the seizure-inducing agents, and several outcomes were measured, including rate of convulsion, mortality rate, time to convulsion (latency), and time to death. Diazepam was used as a positive anticonvulsant control.
(§1) Mice are randomized into 4 treatment groups (n=10 with half male and half female): dextro- or levo-ornidazole (dosage 40, 80, 160 mg/kg), vehicle control group (15% propylene glycol in 0.9% sodium chloride, 20 mL/kg) and the positive control group. Animals are treated with known convulsion-inducing agents, followed by the drug or vehicle control given intravenously. The dose volume is 20 mL/kg with an infusion rate of 0.2 mL/10 seconds.

[6] = system: Strychnine-induced convulsion; test: Anticonvulsant effects on Strychnine-induced convulsion in mice; type: in vivo; settings: n=10; for Convulsion Latency: Mean ± SD
Procedure: as §1, with “seconds. The anticonvulsant effects are observed and recorded (see Tables 2-6).” for “seconds.”

[7] = system: isoniazid-induced convulsion; test: Anticonvulsant effects on isoniazid-induced convulsion in mice; type: in vivo; settings: Mean ± SD, n=10
Procedure: as §1, with “seconds. The anticonvulsant effects are observed and recorded (see Tables 2-6).” for “seconds.”

[8] = system: thiosemicarbazide-induced convulsion; test: Anticonvulsant effects on thiosemicarbazide-induced convulsion in mice; type: in vivo; settings: n=10; for Convulsion Latency / Time to Death: Mean ± SD
Procedure: as §1, with “seconds. The anticonvulsant effects are observed and recorded (see Tables 2-6).” for “seconds.”

glutamate = test: Effects on excitatory neurotransmitter glutamate levels in mice brain; type: in vivo; settings: FIG. 4
Text: In another experiment, the effects on excitatory neurotransmitter levels by levo- and dextro-ornidazole were compared.

Purkinje cells = settings: dog, in vivo, 200 mg/kg
Procedure: Male and female Beagle dogs were kept in laboratory conditions for 1 week to observe general health conditions. […] Animals were treated at dose of I.V. 200 mg/kg for ornidazole enantiomers, or 10 mL/kg for vehicle control for 2 weeks, then sacrificed for anatomical and pathological examinations.
Quantitative data were analyzed by group test and qualitative data by simplified direct probability method. A 10×10 area under low magnification was used to count cerebellar Purkinje cells.

[9] = rat, in vivo

## Cc1ncc([N+](=O)[O-])n1CC(O)CCl (racemic) [Racemic ornidazole, 1-(3-Chloro-2-hydroxypropyl)-2-methyl-5-nitroimidazole]
[1]; intravenous injection
  LD50: 306 mg/kg
[1]; ip, intraperitoneal injection
  LD50: 1120 mg/kg
[1]; oral gavage
  LD50: 769 mg/kg
[2]
  Abdominal pain, # of Patients with AE: 1
  Abdominal pain, Incidence (%): 0.70%
  Appetite drop, # of Patients with AE: 2
  Appetite drop, Incidence (%): 1.41%
  Bitter taste, # of Patients with AE: 1
  Bitter taste, Incidence (%): 0.70%
  Bloating, # of Patients with AE: 3
  Bloating, Incidence (%): 2.11%
  Blurred vision, # of Patients with AE: 1
  Blurred vision, Incidence (%): 0.70%
  Breast tenderness, # of Patients with AE: 1
  Breast tenderness, Incidence (%): 0.70%
  Chest tightness, # of Patients with AE: 2
  Chest tightness, Incidence (%): 1.41%
  Dazzle, # of Patients with AE: 1
  Dazzle, Incidence (%): 0.70%
  Diarrhea, # of Patients with AE: 1
  Diarrhea, Incidence (%): 0.70%
  Dizziness, # of Patients with AE: 4
  Dizziness, Incidence (%): 2.82%
  Dry mouth, # of Patients with AE: 1
  Dry mouth, Incidence (%): 0.70%
  Headache, # of Patients with AE: 1
  Headache, Incidence (%): 0.70%
  Hypersomnia, # of Patients with AE: 8
  Hypersomnia, Incidence (%): 5.63%
  Hypodynamia, # of Patients with AE: 2
  Hypodynamia, Incidence (%): 1.41%
  Nausea, # of Patients with AE: 7
  Nausea, Incidence (%): 4.93%
  Oral malodor, # of Patients with AE: 0
  Oral malodor, Incidence (%): 0.00%
  Rash, # of Patients with AE: 0
  Rash, Incidence (%): 0.00%
  Stomach ache, # of Patients with AE: 0
  Stomach ache, Incidence (%): 0.00%
  Stomach discomfort, # of Patients with AE: 4
  Stomach discomfort, Incidence (%): 2.82%
  Total incidence rate of adverse events: 19.72%
  Vertigo, # of Patients with AE: 8
  Vertigo, Incidence (%): 5.63%
  Vomiting, # of Patients with AE: 1
  Vomiting, Incidence (%): 0.70%
[2]; out of 143 (levo) / 142 (racemate) patients
  Patients with adverse events (total): 28 patients
[3]; 40 mg/kg i.v., 0.5 h post-dose
  Spontaneous Activities (per 5 min): 79 ± 26 per 5 min
[3]; 40 mg/kg i.v., 1 h post-dose
  Spontaneous Activities (per 5 min): 56 ± 37 per 5 min
[3]; 40 mg/kg i.v., 2 h post-dose
  Spontaneous Activities (per 5 min): 63 ± 23 per 5 min
[3]; 40 mg/kg i.v., 3 h post-dose
  Spontaneous Activities (per 5 min): 62 ± 24 per 5 min
[3]; 40 mg/kg i.v., 4 h post-dose
  Spontaneous Activities (per 5 min): 72 ± 35 per 5 min
[3]; 80 mg/kg i.v., 0.5 h post-dose
  Spontaneous Activities (per 5 min): 48 ± 35 per 5 min
[3]; 80 mg/kg i.v., 1 h post-dose
  Spontaneous Activities (per 5 min): 26 ± 19 per 5 min
[3]; 80 mg/kg i.v., 2 h post-dose
  Spontaneous Activities (per 5 min): 32 ± 21 per 5 min
[3]; 80 mg/kg i.v., 3 h post-dose
  Spontaneous Activities (per 5 min): 55 ± 27 per 5 min
[3]; 80 mg/kg i.v., 4 h post-dose
  Spontaneous Activities (per 5 min): 61 ± 20 per 5 min
[3]; 160 mg/kg i.v., 0.5 h post-dose
  Spontaneous Activities (per 5 min): 29 ± 17 per 5 min
[3]; 160 mg/kg i.v., 1 h post-dose
  Spontaneous Activities (per 5 min): 22 ± 14 per 5 min
[3]; 160 mg/kg i.v., 2 h post-dose
  Spontaneous Activities (per 5 min): 21 ± 12 per 5 min
[3]; 160 mg/kg i.v., 3 h post-dose
  Spontaneous Activities (per 5 min): 30 ± 13 per 5 min
[3]; 160 mg/kg i.v., 4 h post-dose
  Spontaneous Activities (per 5 min): 51 ± 23 per 5 min
[4]; 40 mg/kg, 0.5 hours post-dose
  Number of Animals Fall Off: 1
[4]; 40 mg/kg, 1 hours post-dose
  Number of Animals Fall Off: 0
[4]; 40 mg/kg, 2 hours post-dose
  Number of Animals Fall Off: 0
[4]; 40 mg/kg, 3 hours post-dose
  Number of Animals Fall Off: 0
[4]; 40 mg/kg, 4 hours post-dose
  Number of Animals Fall Off: 0
[4]; 80 mg/kg, 0.5 hours post-dose
  Number of Animals Fall Off: 0
[4]; 80 mg/kg, 1 hours post-dose
  Number of Animals Fall Off: 0
[4]; 80 mg/kg, 2 hours post-dose
  Number of Animals Fall Off: 2
[4]; 80 mg/kg, 3 hours post-dose
  Number of Animals Fall Off: 0
[4]; 80 mg/kg, 4 hours post-dose
  Number of Animals Fall Off: 0
[4]; 160 mg/kg, 0.5 hours post-dose
  Number of Animals Fall Off: 10##
[4]; 160 mg/kg, 1 hours post-dose
  Number of Animals Fall Off: 8##
[4]; 160 mg/kg, 2 hours post-dose
  Number of Animals Fall Off: 6
[4]; 160 mg/kg, 3 hours post-dose
  Number of Animals Fall Off: 4
[4]; 160 mg/kg, 4 hours post-dose
  Number of Animals Fall Off: 3

## Cc1ncc([N+](=O)[O-])n1C[C@@H](O)CCl [D-ornidazole, R-(+)-ornidazole]
[5]; 40 mg/kg i.v., n=10
  Mortality Rate: 10/10
  Rate of Convulsion: 10/10
[5]; 80 mg/kg i.v., n=10
  Rate of Convulsion: 5/10*
[5]; 80 mg/kg i.v., n=10, listed as Dextro-ornidazole, 80 mg/kg
  Mortality Rate: 0/10**
[5]; 80 mg/kg i.v., n=10, listed as dextro-ornidazole, 80 mg/kg
  Mortality Rate: 0/10
[5]; 160 mg/kg i.v., n=10
  Mortality Rate: 0/10**
  Rate of Convulsion: 0/10**
[6]; 40 mg/kg i.v.
  Convulsion Latency: 6.0 ± 0.7 min
  Mortality Rate: 10/10
[6]; 80 mg/kg i.v.
  Convulsion Latency: 8.0 ± 2.0 min
  Mortality Rate: 7/10
[6]; 160 mg/kg i.v.
  Convulsion Latency: 9.1 ± 2.6 min
  Mortality Rate: 1/10**
[7]; 40 mg/kg i.v.
  Convulsion Latency: 43.2 ± 5.4 min
  Time to Death: 53.6 ± 7.2 min
[7]; 80 mg/kg i.v.
  Convulsion Latency: 46.1 ± 2.2 min
  Time to Death: 57.0 ± 7.3 min
[7]; 160 mg/kg i.v.
  Convulsion Latency: 48.3 ± 14.1 min
  Time to Death: 81.5 ± 15.8 min
[8]; 40 mg/kg i.v.
  Convulsion Latency: 94.3 ± 25.1 min
  Time to Death: 153.9 ± 43.7 min
[8]; 80 mg/kg i.v.
  Convulsion Latency: 121.8 ± 16.8 min
  Time to Death: 213.6 ± 56.5 min
[8]; 160 mg/kg i.v.
  Mortality Rate: 2/10**
  Rate of Convulsion: 3/10**
glutamate
  Effect on glutamate levels in cerebrum and cerebellum: significantly decreased
Purkinje cells
  Purkinje cell morphology: Purkinje cell denaturing and morphology change
[9]
  Distribution in different region of brain, levo- vs dextro-ornidazole: Similar
